Test: IL-17A ELISpot, lymph node cells after DTH
Format: cell-based, mouse
Settings: ConA 1 μg/mL, 48 h, 37°C
Protocol: For T cell recall assays, 1 × 10^6 lymph node cells per/well were plated in anti-IL17A (TC11-18H10.1, 5 μL, Mabtech)-coated plates (Merck Millipore, #MSIPS4W10), stimulated with denatured bCOL2 (30 μg/mL), and incubated for 48 h at 37°C. Positive controls consisted of lymph node cells stimulated with Concanavalin A (ConA; 1 μg/mL, Sigma), while negative controls comprised unstimulated cells in complete medium only. Bound IL-17A was detected with anti-IL17A (TC11-8H4, 1 μg/mL, Mabtech) followed by streptavidin-conjugated alkaline phosphatase. The spots were developed using the substrate BCIP/Nitroblue Tetrazolium (Sigma). Scanned wells (ImmunoScan) were analyzed with ImmunoSpot software (Cellular Technology).

## Concanavalin A [ConA]
  IL-17A ELISpot signal, positive control: exceeds 600 SFC/10^6 cells
